According to article PMC4957904, “A novel validated assay to support the discovery of new anti-malarial gametocytocidal agents” (Malaria Journal, 2016):
Entries after “also recorded” stand apart in the source; their conditions may differ.

What was measured:
[1] = tested on: late-stage (stage V) Plasmodium falciparum gametocytes; assay: Cidal vs static activity assay by qPCR of late-stage gametocyte-specific mRNA (Pf77, ROM3, Pfg377); assay type: cell-based; conditions: for cidal vs static effect against late-stage gametocytes (mRNA profile T∞ vs T48) / increase in Ct values, constant drug pressure (T∞) / decrease in mRNA levels (fold change), constant drug pressure (T∞) / increase in Ct values after drug removal (T48): Pf77 coding gene; for cidal vs static effect against late-stage gametocytes (mRNA profile T∞ vs T48): 144 h, concentrations of Table 1; for increase in Ct values, constant drug pressure (T∞) / decrease in mRNA levels (fold change), constant drug pressure (T∞): drug present for 144 h (T∞); for increase in Ct values, constant drug pressure (T∞): 20 × IC50 (EX 2 × IC50); for decrease in mRNA levels (fold change), constant drug pressure (T∞): from Ct increase; for reduction of mRNA levels after drug removal (T48): drug present only 48 h (T48), from Ct values; for increase in Ct values after drug removal (T48): drug present 48 h, then 96 h without drug (T48)
Experimental: The in vitro cidal or static anti-malarial activity of a compound against the later stages of gametocyte development at day 15 was assessed by measuring mRNA levels in P.falciparum over 144 h following drug treatment (Fig. 1). Drug activity assays were performed once in two independent cultures in T-75 flasks (Corning, NY, USA). Late-stage gametocytes were incubated with drug and 6 % haematocrit over 48 h. […] IC50 values were obtained from Lelievre et al.. To remove drug from the medium, parasite cultures were harvested and washed two times with 25 ml of RPMI. After drug removal, the parasites were cultured for a further 96 h with complete culture medium either without or with drug, at the same concentration as the initial incubation, to evaluate the reversibility of the compound effect. Medium was changed daily and two samples of 1000 µl of culture at 0, 48, 96, and 144 h were taken, centrifuged and immediately stored at −80 °C for further analysis. An untreated culture was used as a […].
Fig. 1 Scheme showing the cidal vs static in vitro activity assay against stage V Plasmodium falciparum gametocytes. Gametocytes were incubated for 48 h with 20 × IC50. After drug was washed out, the parasites were cultured for 96 h with complete culture medium with drug (A) or without drug (B) to evaluate the reversibility of compound effects. Two samples at t = 0, 48, 96, and 144 h were taken for RNA extraction, cDNA synthesis and qPCR amplification. Comparison of mRNA levels of treated P. falciparum cultures upon removal of the drug was used to assess the cidal vs static activity
For RNA extraction, RNeasy Plus mini kit (Qiagen, Hilden, Germany) was used according to the standard protocol supplied by the manufacturer. cDNA synthesis and SYBR green qPCR were performed in duplicate following the protocol already published by Bahamontes-Rosa et al.. Melting curve analysis was always performed at the end of each assay as a specificity control.
Threshold cycle (Ct) values from the measurement of the cDNA samples were obtained in duplicate using the 7000 and the 7500 fast system Software (Applied Biosystem) and further analysed using an excel data sheet (Microsoft Corporation). The average value was taken as the result and only duplicate Ct values within ±1 Ct difference were accepted. Ct values were used to quantify the relative amount of target PCR product present in each reaction; values are inversely proportional to the amount of template in the sample.
Gene expression during gametocytogenesis was represented with an adaptation of the method described by Livak and Schmittgen as (Ctgene−Ct18S rRNA)Ttime […](Ctgene−Ct18S rRNA)T0, considering the expression at time 0 (T0) as the basal expression and using the 18S rRNA gene as housekeeping gene. Absolute quantification (direct comparison of Ct values) was considered the most appropriate method for the drug activity assays.
Two different treatments were performed in parallel, one with constant drug pressure throughout the experiment (T∞), 144 h in total, and another in which the gametocyte cultures were exposed to the compound for only 48 h, the drug was washed out and then cultured for a further 96 h in fresh complete culture medium (T48) (see Fig. 1).

[2] = tested on: 3D7A P. falciparum mature gametocytes; design: method as in PMID 22514702; conditions: ATP bioluminescence assay, read-out: P.f. gametocytes IC50; cited from earlier work
[3] = tested on: late-stage (stage V) Plasmodium falciparum gametocytes; assay: Cidal vs static activity assay by qPCR of late-stage gametocyte-specific mRNA (Pf77, ROM3, Pfg377); assay type: cell-based; conditions: Pf77 coding gene; 48 h drug treatment only; TCMDC-125114 at 100 × IC50; CQ at 2, 20 and 125 × asexual IC50
[4] = cytotoxicity, short-term resazurin-based reductase assay; cited from earlier work
oocysts = tested on: oocysts; design: method as in PMID 26317851; conditions: SMFA ex vivo, assayed at 2.5 µM; cited from earlier work

Row | SMILES | cidal vs static effect against late-stage gametocytes (mRNA profile T∞ vs T48) [1] | IC50 [2] | effect on Ct values at increasing concentrations, 48 h drug exposure (minimal gametocytocidal concentration) [3] | increase in Ct values, constant drug pressure (T∞) [1] | decrease in mRNA levels (fold change), constant drug pressure (T∞) [1] | reduction of mRNA levels after drug removal (T48) [1] | TOX50 [4] | reduction in the number of oocysts (oocysts) | increase in Ct values after drug removal (T48) [1]
1 | CCN(CC)CCCC(C)Nc1ccnc2cc(Cl)ccc12 (centres unmarked) [Chloroquine, reference compound] | did not affect mature gametocytes | 23500 nM | no Ct increase | – | – | – | – | – | –
2 | C[C@H]1[C@@H](O)O[C@@H]2O[C@@]3(C)CC[C@H]4[C@H](C)CC[C@@H]1[C@@]24OO3 [Dihydroartemisinin, reference compound] | static | 3560 nM | – | at least 5 Ct | ≥ 100 fold | less than tenfold | >50 µM | – | –
3 | CC[C@H](C)[C@H](NC(=O)[C@H]([C@@H](C)CC)N(C)C(C)=O)C(=O)N[C@H](C(=O)N[C@@H](CC(C)C)C(=O)[C@@]1(C)CO1)[C@@H](C)O [Epoxomicin, reference compound] | static | 0.5 nM | – | at least 5 Ct | ≥ 100 fold | less than tenfold | 0.003 µM | – | –
4 | CN(C)c1ccc2nc3ccc(=[N+](C)C)cc-3sc2c1 [Methylene blue, reference compound] | cidal | 490 nM | – | – | – | – | 6.52 µM | – | –
5 | CNC(=S)NN=C(C)c1ccccn1 [TCMDC-123475] | prolonged reduction in mRNA levels only when the drug was continuously present | 9.8 nM | – | 7 Ct | more than 100 fold | – | >25 µM | – | –
6 | Cc1[nH]c2ccccc2c1C(=O)C(C)Sc1n[nH]c(-c2ccccc2Br)n1 (centres unmarked) [TCMDC-125114] | prolonged reduction in mRNA levels only when the drug was continuously present | 130 nM | cidal activity | 7 Ct | more than 100 fold | – | >50 µM | 100% | –
7 | COc1cccc(NC(=O)[C@H](C(C)C)n2c(=O)[nH]c3ccccc3c2=O)c1 [TCMDC-125133] | prolonged reduction in mRNA levels only when the drug was continuously present | 540 nM | – | 7 Ct | more than 100 fold | – | >50 µM | 100% | –
8 | CC(C)c1ccc(NC(=S)NN=Cc2ccccn2)cc1 [TCMDC-125520] | static; also recorded: prolonged reduction in mRNA levels only when the drug was continuously present | 9.8 nM | – | ~5 Ct | ca. 100 fold | less than tenfold | 12.80 µM | – | ≤ 2 Ct
9 | Br.Cc1ccnc(Nc2nc(-c3ccccn3)cs2)c1 [TCMDC-125769] | static; also recorded: prolonged reduction in mRNA levels only when the drug was continuously present | 40 nM | – | ~5 Ct | ca. 100 fold | less than tenfold | >25 µM | – | ≤ 2 Ct
10 | CN1CCOc2ccc(Nc3nnc(-c4cccc(-c5cccnc5)c4)o3)cc2C1 [TCMDC-134278] | – | > 5000 nM | – | – | – | – | 19.95 µM | – | –
11 | CCNCc1cccc(-c2ccc3ccnc(N)c3c2)c1 [TCMDC-136869] | – | 1660 nM | – | – | – | – | 12.59 µM | – | –
12 | C=C(NC(=O)C(=C)NC(=O)c1csc(C2=N[C@@H]3c4csc(n4)[C@H]4NC(=O)c5csc(n5)[C@H]([C@](C)(O)[C@@H](C)O)NC(=O)[C@H]5CSC(=N5)/C(=C/C)NC(=O)[C@H]([C@@H](C)O)NC(=O)c5csc(n5)[C@]3(CC2)NC(=O)[C@H](C)NC(=O)C(=C)NC(=O)[C@H](C)NC(=O)[C@H]([C@@H](C)CC)N[C@@H]2C=Cc3c([C@H](C)O)cc(nc3[C@H]2O)C(=O)O[C@@H]4C)n1)C(N)=O [Thiostrepton, reference compound] | static | 900 nM | – | at least 5 Ct | ≥ 100 fold | less than tenfold | – | – | –
